Results: article PMC9658295, “The RSL3 Induction of KLK Lung Adenocarcinoma Cell Ferroptosis by Inhibition of USP11 Activity and the NRF2-GSH Axis” (Cancers, 2022)

Tests used:
USP11 [1] = target: T1, USP11 (Homo sapiens, UniProt P51784, Q402E/Y833E); test: bio-layer interferometry (Octet), biotinylated protein on SSA sensors, […] global fit; assay type: binding
T1 construct: biotin-labelled for BLI

USP11 [2] = target: T2, USP11 (Homo sapiens, UniProt P51784); test: as above; assay type: binding; conditions: PBS-T, 30 °C; RSL3 6.81-218 μM; unreliable (KD above the highest concentration tested); protein refolded from 8 M urea
T2 construct: biotin-labelled for BLI
T2 sequence (P51784 whole entry): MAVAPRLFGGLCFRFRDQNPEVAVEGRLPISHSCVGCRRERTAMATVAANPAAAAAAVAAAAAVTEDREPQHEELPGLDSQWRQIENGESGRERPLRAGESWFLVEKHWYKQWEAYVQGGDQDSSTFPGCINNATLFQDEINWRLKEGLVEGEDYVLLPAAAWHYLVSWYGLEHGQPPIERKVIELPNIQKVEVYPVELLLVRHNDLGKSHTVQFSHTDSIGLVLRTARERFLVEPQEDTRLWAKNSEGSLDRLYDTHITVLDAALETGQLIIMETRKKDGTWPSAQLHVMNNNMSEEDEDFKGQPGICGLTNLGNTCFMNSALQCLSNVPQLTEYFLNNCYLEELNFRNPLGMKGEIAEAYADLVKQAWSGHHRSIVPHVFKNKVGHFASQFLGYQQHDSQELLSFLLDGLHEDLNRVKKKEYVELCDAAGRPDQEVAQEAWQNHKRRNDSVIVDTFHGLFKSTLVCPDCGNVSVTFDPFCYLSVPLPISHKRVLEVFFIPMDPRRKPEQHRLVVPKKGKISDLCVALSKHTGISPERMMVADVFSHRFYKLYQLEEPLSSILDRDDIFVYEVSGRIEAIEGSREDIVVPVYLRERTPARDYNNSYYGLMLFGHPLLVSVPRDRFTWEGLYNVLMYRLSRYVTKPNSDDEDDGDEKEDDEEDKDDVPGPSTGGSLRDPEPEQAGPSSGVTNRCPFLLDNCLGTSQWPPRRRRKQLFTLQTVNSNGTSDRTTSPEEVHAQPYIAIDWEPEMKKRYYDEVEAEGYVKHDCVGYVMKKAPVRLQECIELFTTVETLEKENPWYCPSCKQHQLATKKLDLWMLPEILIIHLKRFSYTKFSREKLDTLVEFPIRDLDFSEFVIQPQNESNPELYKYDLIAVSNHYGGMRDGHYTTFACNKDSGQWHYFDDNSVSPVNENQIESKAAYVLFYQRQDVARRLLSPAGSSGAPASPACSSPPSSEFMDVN

T1 sequence (P51784 whole entry Q402E/Y833E): as the sequence (P51784 whole entry) above, with Q402E, Y833E counted along it

- Kd (USP11 [1]): 190 µM
- KD (USP11 [2]): 340 µM
Compound: COC(=O)c1ccc([C@H]2c3[nH]c4ccccc4c3C[C@H](C(=O)OC)N2C(=O)CCl)cc1 [RSL3]
